Counter-ions that a name gives are not always drawn.
Key:
Type in all cases: in vivo
dog heart in situ = experiment: Antianginal activity: aortic-coronary sinus difference in oxygen (myocardial oxygen consumption) in anesthetized dogs; details: 1 mg/kg i.v.; for antianginal activity (conclusion in words): based upon comparison with nitroglycerin, named compounds 'particularly'
Procedure: Angina pectoris is a clinical condition of hypoxia that results from an imbalance in myocardial oxygen supply and demand. A drug reducing oxygen demand is useful in the treatment of angina pectoris, as has been the case with nitroglycerin and the beta-adrenergic blocking agents like propranolol (J. R. Paratt, Advan. Drug Res. 9:103-134, 1974). Accordingly,the antianginal activity of 2-substituted indoloquinolizines was evaluated by assessing their capacity to reduce oxygen consumption by the dog heart in situ. This method allows measurement of the difference in oxygen content of the arterial and venous blood.
Mongrel dogs were anesthetized with pentobarbital and cannulas inserted in the trachea and in a femoral vein for artificial respiration with room air and for injection of test compounds, respectively. Heparin was administered intravenously to prevent blood clotting. The chest was opened at the sternal midline and an additional cannula introduced in the coronary sinus. Samples of blood were obtained from the coronary sinus cannula and from the thoracic aorta by direct puncture of the vessel. Partial pressure of oxygen in the samples was determined with a blood gas analyzer. Test compounds were injected intravenously at a dose of 1 mg/kg; oxygen measurements were made before administration and at 1, 5, 10, 20, 30, 40, 50 and 60 min after administration. One animal was used per test compound. As the standard of comparison, nitroglycerin was administered to a test animal and measurements were made in a similar manner.
Differences between partial pressure values in arterial and venous blood samples were calculated for each measurement. Since coronary sinus blood is representative of the venous effluent from the heart, these differences reflect the consumption of oxygen by the myocardium. Thus, the decrease in arteriovenous oxygen difference produced by the compounds by this invention indicates a reduction in myocardial oxygen consumption.

[1] = system: ventricular arrhythmia produced by chloroform; experiment: Antiarrhythmic activity: protection from chloroform-induced ventricular arrhythmia in mice (Lawson model); details: mouse; for ED50: ip, 10 min, i.p., 10 min before chloroform, 95% confidence limits in parentheses, read-out: ED50 (95% C.L.); for mice protected of 5 / Antiarrhythmic activity, ED50 symbol (failed screening dose): 31 mg/kg i.p.; for Antiarrhythmic activity, ED50 symbol (failed screening dose): groups of 5 mice
Procedure: The antiarrhythmic activity of the compounds of this invention was determined in the experimental model described by J. W. Lawson (J. Pharmacol. Exper. Therap. 160:22-31, 1968). Test compounds were administered to groups of 5 mice at an intraperitoneal dose of 31 mg/kg. Ten minutes after injection each mouse was placed in a covered 300 ml glass beaker which contained cotton saturated with chloroform. The animal was observed closely and removed from the beaker immediately after respiratory arrest. The heart was quickly exposed by making an incision through the abdomen, diaphragm, thorax and pericardium for visual inspection of ventricular rate and rhythm. Ventricular contractions were counted for 30 seconds and animals with a rate not exceeding 100 beats per 30 seconds were considered protected from the ventricular arrhythmia produced by chloroform. Compounds protecting at least 3 of the 5 mice were subsequently tested at various doses and the results obtained were used to calculate the mean effective doses (ED50) and 95% confidence limits after the method of Litchfield and Wilcoxon (J. Pharmacol. Exper. Therap. 96:99-113, 1949). Table A presents the results obtained in the antiarrhythmic study.

Systolic Blood Pressure = experiment: Antihypertensive activity: indirect systolic blood pressure in renal hypertensive rats; details: rat, 31 mg/kg p.o., * in table = statistically significant change from control
Procedure: Rats were made hypertensive by applying a figure of eight ligature to one kidney and removing the contralateral kidney two weeks later. At least four weeks after the second operation the animals were subjected to indirect systolic blood pressure measurements with an occluding cuff and pulse sensor system applied to the tail. Pressure measurements were made before and 1,2,4,6 and 8 hours after oral administration of the test compounds at a dose of 31 mg/kg. Each compound was tested in 5 or 10 rats. Statistical significance of differences between control and post treatment values was determined by Wilcoxon's signed rank test (F. Wilcoxon and R. A. Wilcox, Some Rapid Approximate Statistical Procedures, Lederle Laboratories, Pearl River, 1964).

SMILES	Arterio-Venous Difference in Oxygen Partial Pressure at 1 min (dog heart in situ) [mmHg]	Arterio-Venous Difference in Oxygen Partial Pressure at 5 min (dog heart in situ) [mmHg]	Arterio-Venous Difference in Oxygen Partial Pressure at 10 min (dog heart in situ) [mmHg]	Arterio-Venous Difference in Oxygen Partial Pressure at 20 min (dog heart in situ) [mmHg]	Arterio-Venous Difference in Oxygen Partial Pressure at 30 min (dog heart in situ) [mmHg]	Arterio-Venous Difference in Oxygen Partial Pressure at 40 min (dog heart in situ) [mmHg]	Arterio-Venous Difference in Oxygen Partial Pressure at 50 min (dog heart in situ) [mmHg]	Arterio-Venous Difference in Oxygen Partial Pressure at 60 min (dog heart in situ) [mmHg]	ED50 [1] [mg/kg]	mice protected of 5 [1]	Change in Systolic Blood Pressure at 1 hr (Systolic Blood Pressure)	Change in Systolic Blood Pressure at 2 hr (Systolic Blood Pressure)	Change in Systolic Blood Pressure at 4 hr (Systolic Blood Pressure)	Change in Systolic Blood Pressure at 6 hr (Systolic Blood Pressure)	Change in Systolic Blood Pressure at 8 hr (Systolic Blood Pressure)	antianginal activity (conclusion in words) (dog heart in situ)	Antiarrhythmic activity, ED50 symbol (failed screening dose) [1]
O=[N+]([O-])OCC(CO[N+](=O)[O-])O[N+](=O)[O-] [Nitroglycerin, nitroglycerin, reference compound]	13	21	20	20	21	21	18	20	–	–	–	–	–	–	–	–	–
c1ccc(Cn2c3c(c4ccccc42)CCN2CCC(Nc4ccccc4)CC32)cc1 (centres unmarked) [TR2981, 2-anilino-12-benzyl-1,2,3,4,6,7,12,12b-octahydroindolo[2,3-a]quinolizine dihydrochloride]	17	20	21	22	23	24	24	24	31	at least 3 of 5 mice	-2 mmHg	+5 mmHg	-5 mmHg	+7 mmHg	+16 mmHg	antianginal activity is seen	–
O=[N+]([O-])c1cccc(NC2CCN3CCc4c(n(Cc5ccccc5)c5ccccc45)C3C2)c1 (centres unmarked) [TR2998, 12-benzyl-2-(3-nitroanilino)-1,2,3,4,6,7,12,12b-octahydroindolo[2,3-a]quinolizine]	12	16	18	17	18	17	19	20	12	at least 3 of 5 mice	0 mmHg	-2 mmHg	-4 mmHg	0 mmHg	-4 mmHg	antianginal activity is seen	–
COc1ccc(NC2CCN3CCc4c(n(Cc5ccccc5)c5ccccc45)C3C2)cc1.Cl.Cl (centres unmarked) [TR3006, 12-benzyl-2-(4-methoxyanilino)-1,2,3,4,6,7,12,12b-octahydroindolo[2,3-a]quinolizine dihydrochloride]	30	44	45	42	37	38	36	36	–	–	-28 mmHg	-20 mmHg	-18 mmHg	-12 mmHg	-14 mmHg	antianginal activity is seen	* (Did not protect 3 of 5 mice and thus was not tested further.)
Cc1cccc(NC2CCN3CCc4c(n(Cc5ccccc5)c5ccccc45)C3C2)c1.Cl.Cl (centres unmarked) [TR3008, 12-benzyl-2-(3-methylanilino)-1,2,3,4,6,7,12,12b-octahydroindolo[2,3-a]quinolizine dihydrochloride]	20	23	22	23	25	25	24	25	–	–	-27 mmHg	-24 mmHg	-17 mmHg	-17 mmHg	-20 mmHg	–	* (Did not protect 3 of 5 mice and thus was not tested further.)
Brc1cccc(NC2CCN3CCc4c(n(Cc5ccccc5)c5ccccc45)C3C2)c1.Cl (centres unmarked) [TR3014, 12-benzyl-2-(3-bromoanilino)-1,2,3,4,6,7,12,12b-octahydroindolo[2,3-a]quinolizine hydrochloride]	17	18	26	25	26	26	26	24	32	at least 3 of 5 mice	+1 mmHg	-16 mmHg	-2 mmHg	0 mmHg	-3 mmHg	antianginal activity is seen	–
Brc1ccc(NC2CCN3CCc4c(n(Cc5ccccc5)c5ccccc45)C3C2)cc1.Cl.Cl (centres unmarked) [TR3631, 12-benzyl-2-(4-bromoanilino)-1,2,3,4,6,7,12,12b-octahydroindolo[2,3-a]quinolizine dihydrochloride]	26	33	32	30	30	32	31	31	37	at least 3 of 5 mice	+10 mmHg	-5 mmHg	+12 mmHg	+3 mmHg	0 mmHg	antianginal activity is seen	–
